The target of the assay is α7-subtype of nicotinic receptors (Rattus norvegicus, UniProt Q05941). The experiment in a line: biochemical. Type of assay: binding.

Structures can show the parent of a compound that is named as a salt.

As usually defined, the IC50 is the point on the concentration scale where inhibition reaches its midpoint. A high value points to weaker potency in that assay.

α7-subtype of nicotinic receptors, sequence (Q05941 23-502): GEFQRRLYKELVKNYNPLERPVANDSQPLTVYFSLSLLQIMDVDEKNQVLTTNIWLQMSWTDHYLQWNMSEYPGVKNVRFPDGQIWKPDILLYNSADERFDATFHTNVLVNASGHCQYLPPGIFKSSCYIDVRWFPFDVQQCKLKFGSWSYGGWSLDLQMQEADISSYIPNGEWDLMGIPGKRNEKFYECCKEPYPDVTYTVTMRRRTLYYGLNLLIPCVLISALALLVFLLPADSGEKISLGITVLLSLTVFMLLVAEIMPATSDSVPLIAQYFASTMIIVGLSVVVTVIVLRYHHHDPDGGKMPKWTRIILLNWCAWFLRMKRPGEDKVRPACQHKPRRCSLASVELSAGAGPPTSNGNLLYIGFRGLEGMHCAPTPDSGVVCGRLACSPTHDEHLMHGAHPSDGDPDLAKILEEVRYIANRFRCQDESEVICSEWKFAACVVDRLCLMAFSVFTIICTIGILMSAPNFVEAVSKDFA

Consider `c1csc(-c2cnc(N3CCN4CCC3CC4)nc2)c1` [Compound A1, 4-(5-Thiophen-2-yl-pyrimidin-2-yl)-1,4-diaza-bicyclo[3.2.2]nonane hydrochloric acid salt], for which the IC50 was under 100 nM.

The values are drawn from US20100286128A1 (priority 2007, published 2010).
